Data as given in PubChem BioAssay (NCI).
Where “and” joins values, the source holds several entries; their conditions need not be identical. Equal values may be shown once.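 Cells were grown in 96-well plates and exposed to each compound for 48 hours at five concentrations; endpoints were interpolated linearly between bracketing concentrations, or set to the highest concentration if not reached. Abbreviation: GI50, concentration required for 50% inhibition of growth. TGI marks complete inhibition of growth.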

What was measured:
Assay in all cases: NCI tumour cell line growth inhibition, 48 h
[1] = system: KM12 colon
[2] = system: SF-295 CNS
[3] = system: M14 melanoma
[4] = system: U251 CNS
[5] = system: HCT-15 colon
[6] = system: CAKI-1 renal
[7] = system: HL-60(TB) leukemia
[8] = system: SK-MEL-28 melanoma
[9] = system: HCC-2998 colon
[10] = system: NCI-H23 lung

Structure (SMILES)	TGI [1]	TGI [2]	TGI [3] [µM]	TGI [4]	TGI [5]	TGI [6]	TGI [7]	TGI [8]	TGI [9]	TGI [10]	GI50 [1] [µM]	GI50 [4] [µM]	GI50 [5] [µM]	GI50 [7] [µM]	GI50 [8] [µM]	GI50 [9] [µM]	GI50 [10] [µM]	GI50 [2] [µM]	GI50 [6] [µM]
O=c1ccc2cc(O)c(O)cc2o1	> 100 µM	> 100 µM	> 100	> 100 µM	> 100 µM	> 100 µM	> 100 µM	> 100 µM	> 100 µM	> 100 µM									
NC(=O)NN=C(CS)CS	> 100 µM	49.5 µM		43.6 µM	51.9 µM	42.9 µM	2.52 µM	80.8 µM	> 77.5 µM	52.4 µM									
CN(C)c1ccc(/C=N\NC(=O)CSCC(=O)N/N=C/c2ccc(N(C)C)cc2)cc1	> 100 µM	> 100 µM	> 100	> 100 µM	53.2 µM	> 100 µM	> 100 µM	> 100 µM		> 100 µM									
N#CC(c1ccccc1)c1nc2ccc(=N)cc-2n(O)c1C(C#N)c1ccccc1 (configuration not stated)	> 100 µM	> 100 µM	> 100	> 100 µM	> 100 µM	> 100 µM	> 100 µM	> 100 µM		> 100 µM									
CC(=O)C(O)N1C(=O)C=CC1=O (configuration not stated)	25 µM and 31.2 µM and 34.7 µM																		
O=C1c2c(c3c4ccccc4[nH]c3c3ccc4ccccc4c23)C(=O)N1CCN1CCCCC1	25.5 µM			7.51 µM	3.38 µM		3.31 µM	3.16 µM	15.3 µM	9.79 µM	3.05	1.05	0.963	1.07	1.65	1.95	0.741		
COc1ccc(N2C(=O)C3c4[nH]c5c(C)cccc5c4C4CCC(C(C)(C)C)CC4C3C2=O)cc1 (configuration not stated)	> 10 µM	> 10 µM	> 10	> 10 µM	> 10 µM	> 10 µM	> 10 µM	> 10 µM	7.61 µM	> 10 µM									
NC(=O)CCCC(NCc1c2ccccc2nc2ccccc12)C(=O)O (configuration not stated)	> 100 µM	> 100 µM	> 100	> 100 µM	> 100 µM	96.2 µM	62.2 µM	> 100 µM	> 100 µM	> 100 µM									
CN(C)CCCNc1ccc2ncn3c4ccccc4c(=O)c1c23	20.3 µM	39 µM	41.6	> 100 µM	85.6 µM		21.2 µM	> 100 µM		29 µM									
CN1CCCCC1CCN1CCCCC1 (configuration not stated)	> 100 µM	> 100 µM	> 100	> 100 µM	> 100 µM	> 100 µM	> 100 µM	> 100 µM	> 100 µM	> 100 µM									
CC12CCC(C(=O)OC1=O)C(C)(C)O2 (configuration not stated)	> 100 µM	> 100 µM	> 100	> 100 µM		> 100 µM		> 100 µM	> 100 µM	> 100 µM									
CC1C(O)C2(Oc3cc4c(c5c3[C@@H](CC5O)[C@H]2C)CCC2Cc3nc5c(nc3C[C@@]42C)CC2CCC3C4=C[C@H]6O[C@@]7(O[C@@](C)(CO)C[C@@H]7O)C(C)[C@@]6(O)[C@]4(C)[C@@H](O)CC3[C@]2(C)C5)OC1(C)C (some centres not stated)	> 3.67 µM	0.105 µM		0.114 µM	> 3.67 µM	0.975 µM	0.177 µM		> 3.67 µM	0.654 µM									
O=NC1C(Cl)C2CC1C1C(Br)C(Br)CC21 (configuration not stated)	> 100 µM	> 100 µM	> 100	> 100 µM	> 100 µM	> 100 µM	> 100 µM	> 100 µM		> 100 µM									
Cc1c2cc[n+](CCN3CCCCC3)cc2c(C)c2c1[nH]c1ccc(O)cc12	27.9 µM and 14.1 µM	18.4 µM and > 100 µM	50.4	10.6 µM and 10.4 µM	75 µM and > 100 µM	24.3 µM and > 100 µM	26.5 µM and > 40.4 µM	33.7 µM and > 45.9 µM	53 µM and 37.4 µM	53.1 µM and 27.7 µM	3.14	1.7		3.67	9.29	14.3	2.6	5.43	21.1
C/C=C/[P+](c1ccccc1)(c1ccccc1)c1ccccc1	7.7 µM	12 µM	27.2	15.1 µM	> 100 µM	> 100 µM	2.78 µM	17.5 µM	3.82 µM	14.3 µM									
COc1ccc(-c2c3c(nc4nc(SCCc5ccccc5)nc(N)c24)CCCC3)cc1OC	> 100 µM	> 100 µM	> 100	> 100 µM	> 100 µM	> 100 µM	> 100 µM	> 100 µM		> 100 µM									
Cc1cc(NCc2cc(Nc3ccnc4cc(Cl)ccc34)ccc2F)nc(N2CCCC2)n1	4.53 µM			3.32 µM		2.98 µM				4.68 µM	1.97	1.73					1.83		1.47
Cc1ccc(S(=O)(=O)NCCSCCNS(=O)(=O)c2ccc(C)cc2)cc1	> 100 µM	> 100 µM	> 100	> 100 µM	> 100 µM			> 100 µM	> 100 µM	> 100 µM									
CN(C)CCNc1nc(-c2ccc3ccccc3c2)nc2nc[nH]c12	19.3 µM	26.9 µM	23.6	31 µM	18.3 µM	20.6 µM	> 100 µM	28.9 µM	10.6 µM	23.9 µM									
Cc1sc(Cc2ccccc2)nc1-c1ccc(N)cc1	46.3 µM	> 100 µM	43.7	74.7 µM	46.9 µM	83.8 µM	> 100 µM	61.4 µM	35.5 µM	> 100 µM									
COc1ccc([C@@H]2ON(C)[C@H]3CN(C)C(=O)[C@@H]23)cc1		> 100 µM	> 100	> 100 µM	> 100 µM	> 100 µM	> 100 µM	> 100 µM	> 100 µM	> 100 µM									
